Test results reported in ChEMBL document CHEMBL4354853, “Design, Synthesis, and Biological Evaluation of Imidazo[1,2-a]pyridine Derivatives as Novel PI3K/mTOR Dual Inhibitors” (J Med Chem, 2020).

Columns and labels:
[1] = Cmax in Sprague-Dawley rat at 5 mg/kg, po by LC-MS/MS analysis; assay type: ADME, organism-based; parameters: dose 5 mg/kg, route oral; conditions: in vivo
[2] = Volume of distribution at steady state in Sprague-Dawley rat at 1 mg/kg, iv by LC-MS/MS analysis; assay type: ADME, organism-based; conditions: in vivo, read-out: Vdss
[3] = Oral bioavailability in Sprague-Dawley rat at 5 mg/kg by LC-MS/MS analysis; assay type: ADME, organism-based; conditions: in vivo
[4] = Drug level in tumor of nude BALB/c mouse xenografted with human HCT116 cells at 20 mg/kg, po administered as single dose measured after 48 hrs by LC-MS/MS analysis; assay type: ADME, organism-based, Neoplasm; conditions: read-out: Drug uptake
[5] = Clearance in Sprague-Dawley rat at 1 mg/kg, iv by LC-MS/MS analysis; assay type: ADME, organism-based; conditions: in vivo
[6] = Half life in Sprague-Dawley rat at 5 mg/kg, po by LC-MS/MS analysis; assay type: ADME, organism-based; conditions: in vivo
[7] = Half life in Sprague-Dawley rat at 1 mg/kg, iv by LC-MS/MS analysis; assay type: ADME, organism-based; conditions: in vivo
[8] = AUC (0 to infinity) in Sprague-Dawley rat at 1 mg/kg, iv by LC-MS/MS analysis; assay type: ADME, organism-based; parameters: dose 1 mg/kg, time infinity, route intravenous; conditions: in vivo
[9] = AUC (0 to infinity) in Sprague-Dawley rat at 5 mg/kg, po by LC-MS/MS analysis; assay type: ADME, organism-based; parameters: dose 5 mg/kg, route oral, time infinity; conditions: in vivo

COc1ncc(-c2ccc3ncc(-c4nnc(CCN5CCN(C)CC5)o4)n3c2)cc1NS(=O)(=O)c1ccc(F)cc1F
Cmax [1]: 553 ng/mL
Vd [2]: 0.69 L/kg
bioavailability [3]: 26.8%
concentration at 48 h [4]: 600 nM
clearance [5]: 5.66 mL/min/kg
half-life [6]: 7.94 h
half-life [7]: 4.71 h
AUC(0-inf) [8]: 2960 ng·h/mL
AUC(0-inf) [9]: 3960 ng·h/mL
